pEC50: −log10 of the molar value. One block for each molecule: values may come before it. Starred links: 1 amine or outer side, 2 acyl side, 3 side chain; linkers in the order of their positions; H or OH if unused. Positions of bridges follow the written chain, without caps; N, C: chain ends. Non-standard residues stand in square brackets, D forms with d. Residues, ends and D or L forms follow the SMILES beside them. *: point of attachment. Orn(4R-OH,5R-OH) = O=C([C@H](C[C@@H](O)[C@@H](O)N[*:3])N[*:1])[*:2]; hTyr(3S-OH,4S-OH) = N[C@H](C(=O)O)[C@H](O)[C@@H](O)c1ccc(O)cc1; Pro(3S-OH,4S-Me) = C[C@H]1CN[C@H](C(=O)O)[C@H]1O; Benzoyl(4-octyloxy) = CCCCCCCCOc1ccc(C(=O)*)cc1; Hyp = O=C(O)[C@@H]1C[C@@H](O)CN1
Key:
C. albicans 516 = experiment: Antifungal susceptibility testing, pH 7.0/35° C., 1x10^3 cells/mL; assay type: cell-based, Candida albicans; settings: Candida albicans, 516; pH 7.0/35° C./1x10^3 cells/mL, 48 hrs; read-out: EC50 - 48 HRS C.albicans (516)
Protocol: (§1) 2) Assay at pH 7.0/35° C. Incubation/(Candida Strains Only).
(§2) Based on several papers published during 1990-1993 regarding the standardization of testing procedures at multiple research centers, and the finding that, inoculum size, pH of media, and the temperature of incubation drastically affect the antifungal activity of several compounds, particularly in the Azole class of antifungals, an additional assay was configured at pH 7.0 for Candida albicans. [M. A. Pfaller et al, Antimicrobial Agents and Chemotherapy, 34, 1648-1654 (1990); F. C. Odds et al, Antimicrobial Agents and Chemotherapy, 36, 1727-1737 (1992); R. A. Cook et al, Antimicrobial Agents and Chemotherapy, 34, 1542-1545 (1990)]
(§3) The assay format is identical to the first one with the following modifications: C.albicans cells are diluted to 1×10^3 cells/ml into 2× buffered YNB (YNB buffered with 1.65 mM MOPS, pH 7.0, with the addition of 2% Dextrose and 0.08% casamino acids mixture, bio 101. inc,cat #10420-100). Incubation is carried out at 35° C. instead of 30° C., and cell growth is monitored at 590 nm at 24 and 48 hrs as described. All other aspects of the assay are identical. This assay was validated with amphotericin B, fluconazole, cilofungin (Ly-121019), Nikkomycin and terbinafine using the following Candida strains- (C.albicans, B311, C.parasilosis, C.tropicalis, C.lusitaniae, C.glabrata, and C. albicans 516)-Table II. All strains were from Dr. Kobayashi, Washington university.

C.glabrata = experiment: as above; assay type: cell-based; settings: Nakaseomyces glabratus; pH 7.0/35° C./1x10^3 cells/mL, 48 hrs; read-out: EC50 - 48 HRS C.glab.
Protocol: as §1, §2, §3

C.parasilosis = experiment: as above; assay type: cell-based; settings: pH 7.0/35° C./1x10^3 cells/mL, 48 hrs; read-out: EC50 - 48 HRS C.para
Protocol: as §1, §2, §3

C.tropicalis = experiment: as above; assay type: cell-based; settings: Candida tropicalis; pH 7.0/35° C./1x10^3 cells/mL, 48 hrs; read-out: EC50 - 48 HRS C.trop.
Protocol: as §1, §2, §3

C.albicans, B311 = experiment: as above; assay type: cell-based; settings: Candida albicans, B311; pH 7.0/35° C./1x10^3 cells/mL, 48 hrs; read-out: EC50 - 48 HRS C.albicans
Protocol: as §1, §2, §3

C.lusitaniae = experiment: as above; assay type: cell-based; settings: Clavispora lusitaniae; pH 7.0/35° C./1x10^3 cells/mL, 48 hrs; read-out: EC50 - 48 HRS C.lusi.
Protocol: as §1, §2, §3

HIV-1 = settings: acutely and chronically infected human T-lymphocyte cell lines, doses which do not cause cellular toxicity; cited from earlier work
[1] = system: a variety of fungal species, including C. albicans; settings: Sabouraud dextrose agar; series of n-alkoxyacetic acids; cited from earlier work

pEC50 (C. albicans 516): 6.22
pEC50 (C.glabrata): 5.21
pEC50 (C.parasilosis): 4.49
pEC50 (C.tropicalis): 6.22
pEC50 (C.albicans, B311): 6.22
pEC50 (C.lusitaniae): 5.18
SMILES: CCCCCCCCOc1ccc(C(=O)N[C@H]2C[C@@H](O)[C@@H](O)NC(=O)[C@@H]3[C@@H](O)[C@@H](C)CN3C(=O)[C@H]([C@@H](C)O)NC(=O)[C@H]([C@H](O)[C@@H](O)c3ccc(O)cc3)NC(=O)[C@@H]3C[C@@H](O)CN3C(=O)[C@H]([C@@H](C)O)NC2=O)cc1 [Ly 12109, cilofungin] ({Benzoyl(4-octyloxy)}-[Orn(4R-OH,5R-OH)]T[Hyp][hTyr(3S-OH,4S-OH)]T[Pro(3S-OH,4S-Me)]; lactam 1-C)

SMILES: COCCCCCCCCCCCC(=O)O [13-oxatetradecanoic acid]
inhibition of HIV-1 replication (HIV-1): inhibits HIV-1 replication

SMILES: CCCCCCCCOCC(=O)O [3-oxaundecanoic acid]
effects on the growth of fungal species [1]: broadest spectrum and highest potency

SMILES: CCCCCCCCCCCOCC(=O)O [3-oxatetradecanoic acid]
effects on the growth of fungal species [1]: inhibiting growth
